Test system: individuals showing problems related to venous insufficiency
Experiment: Administration of oleuropein to patients suffering from venous insufficiency (general statements)
Conditions: compared with other drugs known for peripheral vascular disease symptoms

## C/C=C1/[C@H](O[C@@H]2O[C@H](CO)[C@@H](O)[C@H](O)[C@H]2O)OC=C(C(=O)OC)[C@H]1CC(=O)OCCc1ccc(O)c(O)c1 [oleuropein]
  side effects: do not show significant side effects

— patent US20080227728A1, “Therapeutic Agent for the Treatment of a Condition Associated with Peripheral Vascular Disease” (LABORATORIOS BELMAC, S.A., priority 2005, published 2008)
